Results as given in patent publication US20230101747A1 (Schrödinger, Inc., priority 2019, published 2023).

The compounds below were run against T1, Full length human CDC7 protein co-expressed with DBF4 (Homo sapiens, UniProt O00311) (assay: CDC7 kinase biochemical assay (ADP-Glo, PDKtide substrate)). Conditions: 0.1 nM CDC7/DBF4, 1 uM ATP, 10 uM PDKtide, 4 h; read-out: CDC7 ADP-Glo PDKtide IC50.
T1 construct: Full length human CDC7 protein co-expressed with DBF4; purchased SignalChem (China)
T1 sequence (O00311 whole entry): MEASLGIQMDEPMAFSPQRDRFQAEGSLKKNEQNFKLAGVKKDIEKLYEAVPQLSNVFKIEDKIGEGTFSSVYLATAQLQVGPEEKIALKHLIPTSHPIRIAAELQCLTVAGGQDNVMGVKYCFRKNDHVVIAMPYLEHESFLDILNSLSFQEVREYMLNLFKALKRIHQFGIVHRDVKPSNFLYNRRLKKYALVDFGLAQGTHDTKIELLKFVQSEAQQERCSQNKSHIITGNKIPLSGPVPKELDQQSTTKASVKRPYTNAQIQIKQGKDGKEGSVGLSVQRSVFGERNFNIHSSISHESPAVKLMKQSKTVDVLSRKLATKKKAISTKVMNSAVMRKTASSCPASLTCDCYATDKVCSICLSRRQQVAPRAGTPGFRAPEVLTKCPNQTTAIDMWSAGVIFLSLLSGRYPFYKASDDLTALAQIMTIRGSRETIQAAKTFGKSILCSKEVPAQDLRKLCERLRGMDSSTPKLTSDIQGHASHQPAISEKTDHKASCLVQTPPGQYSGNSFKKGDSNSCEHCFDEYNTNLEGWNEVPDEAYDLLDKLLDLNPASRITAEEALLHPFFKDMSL
T1 sequence (Q9UBU7 whole entry partner): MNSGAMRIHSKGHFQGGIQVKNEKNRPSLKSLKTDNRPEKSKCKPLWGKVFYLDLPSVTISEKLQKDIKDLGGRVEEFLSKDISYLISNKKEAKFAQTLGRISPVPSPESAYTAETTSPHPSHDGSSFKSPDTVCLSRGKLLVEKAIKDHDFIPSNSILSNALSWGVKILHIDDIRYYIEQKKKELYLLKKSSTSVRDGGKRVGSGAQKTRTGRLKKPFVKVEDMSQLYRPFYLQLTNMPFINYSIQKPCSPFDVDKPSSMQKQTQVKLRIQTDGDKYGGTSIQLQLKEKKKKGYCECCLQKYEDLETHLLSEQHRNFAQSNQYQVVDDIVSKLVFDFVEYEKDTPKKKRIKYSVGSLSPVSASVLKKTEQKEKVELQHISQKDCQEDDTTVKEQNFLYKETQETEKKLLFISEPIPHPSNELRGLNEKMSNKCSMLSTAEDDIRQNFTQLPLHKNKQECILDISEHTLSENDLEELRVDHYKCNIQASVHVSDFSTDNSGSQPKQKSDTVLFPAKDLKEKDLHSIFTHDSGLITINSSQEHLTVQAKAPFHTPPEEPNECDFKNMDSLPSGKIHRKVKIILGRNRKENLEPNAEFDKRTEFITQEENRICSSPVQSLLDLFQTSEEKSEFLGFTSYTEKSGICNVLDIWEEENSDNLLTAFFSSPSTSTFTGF
Description: CDC7 Kinase Biochemical Assay Protocol:
Full length human CDC7 protein co-expressed with DBF4 was purchased from SignalChem (China). CDC7 kinase activity was determined with PDKtide (SignalChem) as a substrate and by measuring ADP production using the ADP-Glo™ Kinase Assay kit (Promega) following the manufacturers instructions. The kinase reaction was performed using the following conditions: Buffer: 40 mM Tris pH 7.5, 20 mM MgCl2, 0.1 mg/ml BSA and 50 uM DTT. Final reaction mix contained 0.1 nM CDC7/DBF4, 1 uM ATP and 10 uM PDKtide. The kinase reaction time was 4 h. The ADP-Glo signal was measured using an EnVision plate reader (PerkinELmer).
Percent inhibition of CDC7 kinase activity was calculated based on the following formula: […]
SSample: the signal of compounds SHigh ctrl: the signal of high control (DMSO) SLow Ctrl: the signal of low control (positive control CDC7 inhibitor)
In the case of `O=C1NC(C2CC(F)(F)C2)CN2CCOc3c(-c4cn[nH]c4)sc1c32` (single isomer, unassigned) [Compound 111, (R or S)-7-(3,3-difluorocyclobutyl)-2-(1H-pyrazol-4-yl)-4,5,7,8-tetrahydro-3-oxa-1-thia-5a,8-diazabenzo[cd]azulen-9(6H)-one], the IC50 is reported as under 1 nM.
`O=C1NC(C2CCCCO2)CN2CCCc3c(-c4cn[nH]c4)sc1c32` (single isomer, unassigned) [Compound 107] was tested, and the IC50 was under 1 nM.
`CC(C)(O)C[C@@H]1CN2CC(F)(F)Oc3c(-c4cn[nH]c4)sc(c32)C(=O)N1` [Compound 117, (R)-4,4-difluoro-7-(2-hydroxy-2-methylpropyl)-2-(1H-pyrazol-4-yl)-4,5,7,8-tetrahydro-3-oxa-1-thia-5a,8-diazabenzo-[cd]azulen-9(6H)-one] gave an IC50 of under 1 nM.
With `O=C1NC(C2CC(F)(F)C2)CN2CCOc3c(-c4cn[nH]c4)sc1c32` (single isomer, unassigned) [Compound 112, (S or R)-7-(3,3-difluorocyclobutyl)-2-(1H-pyrazol-4-yl)-4,5,7,8-tetrahydro-3-oxa-1-thia-5a,8-diazabenzo[cd]azulen-9(6H)-one] the IC50 was under 1 nM.
`CC1C(C2CCC2)NC(=O)c2sc(-c3cn[nH]c3)c3c2N1CCO3` (racemic) [Compound 96, 10-cyclobutyl-9-methyl-3-(1H-pyrazol-4-yl)-5-oxa-2-thia-8,11-diazatricyclo[6.4.1.0^4,13] trideca-1(13),3-dien-12-one] gave an IC50 of under 1 nM.
For `Cc1n[nH]cc1-c1sc2c3c1OCCN3C[C@H](C)NC2=O` [Compound 17], the IC50 was 1 to 10 nM.
For `COC(=O)C[C@@H]1CNC(=O)c2sc(-c3cn[nH]c3)c3c2N1CCO3` [Compound 60, methyl (R)-2-(9-oxo-2-(1H-pyrazol-4-yl)-4,5,6,7,8,9-hexahydro-3-oxa-1-thia-5a,8-diazabenzo[cd]azulen-6-yl)acetate], the IC50 was 1 to 10 nM.
Compound `CC1(C)NC(=O)c2sc(-c3ccncc3)c3c2N1CCO3` [Compound 2, 6,6-dimethyl-2-(pyridin-4-yl)-4,5,6,7-tetrahydro-8H-3-oxa-1-thia-5a,7-diazaacenaphthylen-8-one] has an IC50 of under 1 nM.
In the case of `O=C1NC(C2CCCCO2)CN2CCCc3c(-c4cn[nH]c4)sc1c32` (single isomer, unassigned) [Compound 108], the IC50 is reported as under 1 nM.
Compound `CC1(C)NC(=O)c2sc(-c3c[nH]c4ncccc34)c3c2N1CCO3` [Compound 9, 6,6-dimethyl-2-(1H-pyrrolo[2,3-b]pyridin-3-yl)-4,5,6,7-tetrahydro-8H-3-oxa-1-thia-5a,7-diazaacenaphthylen-8-one] has an IC50 of 1 to 10 nM.
Work on `O=C1NCC(C2CCOCC2)N2CCOc3c(-c4cn[nH]c4)sc1c32` (stereo not shown) [Compound 26, 2-(1H-pyrazol-4-yl)-6-(tetrahydro-2H-pyran-4-yl)-4,5,7,8-tetrahydro-3-oxa-1-thia-5a,8-diazabenzo[cd]azulen-9(6H)-one] yielded an IC50 of under 1 nM.
`O=C1NC[C@@H](CC2(O)CC2)N2CCCc3c(-c4cn[nH]c4)sc1c32` [Compound 89, (9R)-9-[(1-hydroxycyclopropyl)methyl]-3-(1H-pyrazol-4-yl)-2-thia-8,11-diazatricyclo [6.4.1.0^4,13]trideca-1(13),3-dien-12-one] gave an IC50 of under 1 nM.
In the case of `COC[C@@H]1CNC(=O)c2sc(-c3cn[nH]c3)c3c2N1CC(F)(F)O3` [Compound 133, (S)-4,4-difluoro-6-(methoxymethyl)-2-(1H-pyrazol-4-yl)-4,5,7,8-tetrahydro-3-oxa-1-thia-5a,8-diazabenzo[cd]azulen-9(6H)-one], the IC50 is reported as under 1 nM.
`O=C1NC2(CCOCC2)CN2CCOc3c(-c4cn[nH]c4)sc1c32` [Compound 64, 2-(1H-pyrazol-4-yl)-2′,3′,4,5,5′,6′-hexahydro-6H-3-oxa-1-thia-5a,8-diazaspiro[benzo[cd]azulene-7,4′-pyran]-2,2a1(9a)-dien-9(8H)-one] gave an IC50 of under 1 nM.
`COC1CN(C[C@H]2CN3CC(F)(F)Cc4c(-c5cn[nH]c5)sc(c43)C(=O)N2)C1` [Compound 141, (S)-4,4-difluoro-7-((3-methoxyazetidin-1-yl)methyl)-2-(1H-pyrazol-4-yl)-4,5,7,8-tetrahydro-3H-1-thia-5a,8-diazabenzo[cd]azulen-9(6H)-one] was tested, and the IC50 was 1 to 10 nM.
Work on `C[C@@H]1CNC(=O)c2sc(-c3ccncc3)c3c2N1C(=O)CO3` [Compound 22, (R)-6-methyl-2-(pyridin-4-yl)-7,8-dihydro-3-oxa-1-thia-5a,8-diazabenzo[cd]azulene-5,9(4H,6H)-dione] yielded an IC50 of 1 to 10 nM.
In the case of `CC(C)(O)C[C@@H]1CN2CC(F)(F)Cc3c(-c4cn[nH]c4)sc(c32)C(=O)N1` [Compound 131, (R)-4,4-difluoro-7-(2-hydroxy-2-methylpropyl)-2-(1H-pyrazol-4-yl)-4,5,7,8-tetrahydro-3H-1-thia-5a,8-diazabenzo[cd]azulen-9(6H)-one], the IC50 is reported as under 1 nM.
`C[C@H]1CN2CCCc3c(-c4ccncc4)sc(c32)C(=O)N1` [Compound 31, (S)-7-methyl-2-(pyridin-4-yl)-4,5,7,8-tetrahydro-3H-1-thia-5a,8-diazabenzo[cd]azulen-9(6H)-one] gave an IC50 of 1 to 10 nM.
Compound `O=C1N[C@H](CN2CCOCC2)CN2CC(F)(F)Cc3c(-c4cn[nH]c4)sc1c32` [Compound 134, (R)-4,4-difluoro-7-(morpholinomethyl)-2-(1H-pyrazol-4-yl)-4,5,7,8-tetrahydro-3H-1-thia-5a,8-diazabenzo[cd]azulen-9(6H)-one] has an IC50 of 1 to 10 nM.
With `O=C1NC(C2CC(F)(F)C2)CN2CC(F)(F)Cc3c(-c4cn[nH]c4)sc1c32` (single isomer, unassigned) [Compound 113, (R or S)-7-(3,3-difluorocyclobutyl)-4,4-difluoro-2-(1H-pyrazol-4-yl)-4,5,7,8-tetrahydro-3H-1-thia-5a,8-diazabenzo[cd]azulen-9(6H)-one] the IC50 was under 1 nM.
Compound `O=C1N[C@@H](C2CCCCO2)CN2CC(F)(F)Cc3c(-c4cn[nH]c4)sc1c32` (single isomer, unassigned) [Compound 139] has an IC50 of under 1 nM.
`O=C1N[C@H](C2CCCCO2)CN2CC(F)(F)Cc3c(-c4cn[nH]c4)sc1c32` (single isomer, unassigned) [Compound 137] was tested, and the IC50 was over 10 nM.
`C[C@H]1CNC(=O)c2sc(-c3cn[nH]c3)c3c2N1CCO3` [Compound 25, (S)-6-methyl-2-(1H-pyrazol-4-yl)-4,5,7,8-tetrahydro-3-oxa-1-thia-5a,8-diazabenzo[cd]azulen-9(6H)-one] gave an IC50 of under 1 nM.
Compound `Cc1[nH]ncc1-c1sc2c3c1OCCN3C(C)(C)NC2=O` [Compound 6, 6,6-dimethyl-2-(5-methyl-1H-pyrazol-4-yl)-4,5,6,7-tetrahydro-8H-3-oxa-1-thia-5a,7-diazaacenaphthylen-8-one] has an IC50 of 1 to 10 nM.
With `COC(=O)[C@@H]1CN2C(=O)COc3c(-c4cn[nH]c4)sc(c32)C(=O)N1` [Compound 53, Methyl (S)-5,9-dioxo-2-(1H-pyrazol-4-yl)-4,5,6,7,8,9-hexahydro-3-oxa-1-thia-5a,8-diazabenzo[cd]azulene-7-carboxylate] the IC50 was 1 to 10 nM.
Work on `CC(=O)NC[C@@H]1COc2c(-c3cn[nH]c3)sc3c2N1CCNC3=O` [Compound 57, N-[[(7R)-12-oxo-3-(1H-pyrazol-4-yl)-5-oxa-2-thia-8,11-diazatricyclo[6.4.1.0^4,13]trideca-1(13),3-dien-7-yl]methyl]acetamide] yielded an IC50 of under 1 nM.
Work on `O=C1NC(C2CC(F)(F)C2)CN2CC(F)(F)Cc3c(-c4cn[nH]c4)sc1c32` (single isomer, unassigned) [Compound 114, (R or S)-7-(3,3-difluorocyclobutyl)-4,4-difluoro-2-(1H-pyrazol-4-yl)-4,5,7,8-tetrahydro-3H-1-thia-5a,8-diazabenzo[cd]azulen-9(6H)-one] yielded an IC50 of under 1 nM.
For `O=C1NC(C2CC(F)(F)C2)CN2CC(F)Cc3c(-c4cn[nH]c4)sc1c32` (single isomer, unassigned) [Compound 127, 7-(3,3-difluorocyclobutyl)-4-fluoro-2-(1H-pyrazol-4-yl)-4,5,7,8-tetrahydro-3H-1-thia-5a,8-diazabenzo[cd]azulen-9(6H)-one], the IC50 was under 1 nM.
`CC(C)(O)C[C@H]1CN2CC(F)(F)Cc3c(-c4cn[nH]c4)sc(c32)C(=O)N1` [Compound 132, (S)-4,4-difluoro-7-(2-hydroxy-2-methylpropyl)-2-(1H-pyrazol-4-yl)-4,5,7,8-tetrahydro-3H-1-thia-5a,8-diazabenzo[cd]azulen-9(6H)-one] gave an IC50 of under 1 nM.
`O=C1N[C@H](C2CCCCO2)CN2CC(F)(F)Cc3c(-c4cn[nH]c4)sc1c32` (single isomer, unassigned) [Compound 138] showed an IC50 of 1 to 10 nM.

Same assay, conditions: CDC7 ADP-Glo PDKtide IC50, 0.1 nM CDC7/DBF4, 1 uM ATP, 10 uM PDKtide, 4 h
In the case of `O=C1N[C@H](C2CCC2)CN2C(=O)COc3c(-c4cn[nH]c4)sc1c32` [Compound 21, (R)-7-cyclobutyl-2-(1H-pyrazol-4-yl)-7,8-dihydro-3-oxa-1-thia-5a,8-diazabenzo[cd]azulene-5,9(4H,6H)-dione], the IC50 is reported as 1 to 10 nM.
